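Tested at 5 concentrations; 48 h exposure; 96-well plates; endpoints linearly interpolated, else capped at highest concentration. At the GI50, growth is halved. Definition used: TGI = concentration required for complete inhibition of growth.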
Columns and labels:
Assay in all cases: NCI-60 cell line screen, 48 h
[1] = test system: PC-3 prostate
[2] = test system: TK-10 renal
[3] = test system: EKVX NSCLC
[4] = test system: BT-549 breast
[5] = test system: CAKI-1 renal
[6] = test system: MALME-3M melanoma
[7] = test system: HOP-62 NSCLC
[8] = test system: SNB-19 CNS
[9] = test system: NCI/ADR-RES ovarian
[10] = test system: UACC-62 melanoma
[11] = test system: K-562 leukemia
[12] = test system: SF-539 CNS
[13] = test system: SK-MEL-5 melanoma
[14] = test system: HCT-116 colon
[15] = test system: SF-268 CNS
[16] = test system: 786-0 renal
[17] = test system: SW-620 colon
[18] = test system: SK-MEL-28 melanoma
[19] = test system: HCC-2998 colon
[20] = test system: SR leukemia
[21] = test system: MCF7 breast
[22] = test system: COLO 205 colon
[23] = test system: UO-31 renal
[24] = test system: SK-MEL-2 melanoma
[25] = test system: MDA-MB-435
[26] = test system: SN12C renal
[27] = test system: SK-OV-3 ovarian
[28] = test system: UACC-257 melanoma
[29] = test system: NCI-H522 lung
[30] = test system: U251 CNS
[31] = test system: M14 melanoma
[32] = test system: RXF 393 renal
[33] = test system: HS 578T breast
[34] = test system: NCI-H226 lung
[35] = test system: OVCAR-3 ovarian
[36] = test system: T-47D breast
[37] = test system: OVCAR-8 ovarian
[38] = test system: DU-145 prostate
[39] = test system: NCI-H460 lung
[40] = test system: NCI-H23 lung
[41] = test system: IGROV1 ovarian
[42] = test system: MOLT-4 leukemia
[43] = test system: ACHN renal
[44] = test system: SF-295 CNS
[45] = test system: RPMI-8226 leukemia
[46] = test system: A549 NSCLC
[47] = test system: SNB-75 CNS
[48] = test system: MDA-MB-231 breast
[49] = test system: CCRF-CEM leukemia
[50] = test system: HOP-92 NSCLC
[51] = test system: LOX IMVI melanoma
[52] = test system: HT29 colon
[53] = test system: HL-60(TB) leukemia
[54] = test system: OVCAR-5 ovarian
[55] = test system: KM12 colon
[56] = test system: HCT-15 colon
[57] = test system: A498 renal
[58] = test system: OVCAR-4 ovarian

## C#CCn1cnc2cnc(Nc3cccc(NC(=O)CCl)c3)nc21
[1]
  GI50: 27.7 µM
  TGI: > 62.5 µM
[2]
  GI50: 22.9 µM
  TGI: > 62.5 µM
[3]
  GI50: > 62.5 µM
  TGI: > 62.5 µM
[4]
  GI50: 13.3 µM
  TGI: > 62.5 µM
[5]
  GI50: 22.9 µM
  TGI: > 62.5 µM
[6]
  GI50: 23.2 µM
  TGI: > 62.5 µM
[7]
  GI50: 54.7 µM
  TGI: > 62.5 µM
[8]
  GI50: 36.5 µM
  TGI: > 62.5 µM
[9]
  GI50: 26.4 µM
  TGI: > 62.5 µM
[10]
  GI50: 22.6 µM
  TGI: > 62.5 µM
[11]
  GI50: 23.7 µM
  TGI: > 62.5 µM
[12]
  GI50: 16.9 µM
  TGI: > 62.5 µM
[13]
  GI50: 10.3 µM
  TGI: 19.5 µM
[14]
  GI50: 21.3 µM
  TGI: > 62.5 µM
[15]
  GI50: 25.8 µM
  TGI: > 62.5 µM
[16]
  GI50: 23.3 µM
  TGI: > 62.5 µM
[17]
  GI50: 19.1 µM
  TGI: > 62.5 µM
[18]
  GI50: 25.3 µM
  TGI: > 62.5 µM
[19]
  GI50: 46.8 µM
  TGI: > 62.5 µM
[20]
  GI50: 56.8 µM
  TGI: > 62.5 µM
[21]
  GI50: 15.3 µM
  TGI: > 62.5 µM
[22]
  GI50: 15.2 µM
  TGI: 45 µM
[23]
  GI50: 10.9 µM
  TGI: 55.3 µM
[24]
  GI50: 43 µM
  TGI: > 62.5 µM
[25]
  GI50: 28.5 µM
  TGI: > 62.5 µM
[26]
  GI50: 19.4 µM
  TGI: > 62.5 µM
[27]
  GI50: 23.6 µM
  TGI: > 62.5 µM
[28]
  GI50: 51 µM
  TGI: > 62.5 µM
[29]
  GI50: 10.3 µM
  TGI: 22.4 µM
[30]
  GI50: 19.6 µM
  TGI: > 62.5 µM
[31]
  GI50: 22.5 µM
  TGI: > 62.5 µM
[32]
  GI50: 10.1 µM
  TGI: 25.4 µM
[33]
  GI50: 17.3 µM
  TGI: > 62.5 µM
[34]
  GI50: 49.9 µM
  TGI: > 62.5 µM
[35]
  GI50: 15.2 µM
  TGI: > 62.5 µM
[36]
  GI50: > 62.5 µM
  TGI: > 62.5 µM
[37]
  GI50: 26.3 µM
  TGI: > 62.5 µM
[38]
  GI50: 29.8 µM
  TGI: > 62.5 µM
[39]
  GI50: 22.7 µM
  TGI: > 62.5 µM
[40]
  GI50: 38.8 µM
  TGI: > 62.5 µM
[41]
  GI50: 6.99 µM
  TGI: 22.3 µM
[42]
  GI50: 21.5 µM
  TGI: > 62.5 µM
[43]
  GI50: 10.9 µM
  TGI: 23.3 µM
[44]
  GI50: 47.1 µM
  TGI: > 62.5 µM
[45]
  GI50: 19.2 µM
  TGI: > 62.5 µM
[46]
  GI50: 20 µM
  TGI: > 62.5 µM
[47]
  GI50: 8.18 µM
  TGI: > 62.5 µM
[48]
  GI50: 20.8 µM
  TGI: > 62.5 µM
[49]
  GI50: 15.3 µM
  TGI: > 62.5 µM
[50]
  GI50: > 62.5 µM
  TGI: > 62.5 µM
[51]
  GI50: 16.3 µM
  TGI: > 62.5 µM
[52]
  GI50: 17.3 µM
  TGI: > 62.5 µM
[53]
  GI50: 15.7 µM
  TGI: 41.3 µM
[54]
  GI50: 29.8 µM
  TGI: > 62.5 µM
[55]
  GI50: 21.1 µM
  TGI: > 62.5 µM
[56]
  GI50: 29.3 µM
  TGI: > 62.5 µM
[57]
  GI50: 21 µM
  TGI: > 62.5 µM

## CC(=O)Oc1c(-c2ccccc2)oc2ccccc12
[1]
  TGI: 4.55 µM
[2]
  TGI: 14 µM
[3]
  TGI: 3.99 µM
[4]
  TGI: 7.05 µM
[5]
  TGI: 2.62 µM
[6]
  TGI: 5.54 µM
[7]
  TGI: 6 µM
[8]
  TGI: 11.6 µM
[9]
  TGI: 9.29 µM
[10]
  TGI: 8.49 µM
[11]
  TGI: 4.13 µM
[12]
  TGI: 2.86 µM
[13]
  TGI: 2.8 µM
[14]
  TGI: 4.12 µM
[15]
  TGI: 6.3 µM
[16]
  TGI: 14.2 µM
[17]
  TGI: 11.8 µM
[18]
  TGI: 6.56 µM
[19]
  TGI: 2.8 µM
[20]
  TGI: 1.59 µM
[21]
  TGI: 4.3 µM
[22]
  TGI: 3.77 µM
[23]
  TGI: 3.96 µM
[24]
  TGI: 4.35 µM
[25]
  TGI: 6.95 µM
[26]
  TGI: 4.68 µM
[28]
  TGI: 6.04 µM
[29]
  TGI: 5 µM
[30]
  TGI: 2.76 µM
[31]
  TGI: 5.17 µM
[32]
  TGI: 3.59 µM
[33]
  TGI: 6.38 µM
[34]
  TGI: 5.2 µM
[35]
  TGI: 6.02 µM
[36]
  TGI: 5.9 µM
[37]
  TGI: 12.5 µM
[38]
  TGI: 13.9 µM
[39]
  TGI: 2.44 µM
[40]
  TGI: 4.15 µM
[41]
  TGI: 6.56 µM
[42]
  TGI: 4.53 µM
[43]
  TGI: 3.28 µM
[44]
  TGI: 2.58 µM
[58]
  TGI: 9.85 µM
[45]
  TGI: 2.67 µM
[46]
  TGI: 3.33 µM
[47]
  TGI: 6.35 µM
[48]
  TGI: 2.86 µM
[49]
  TGI: 3.93 µM
[50]
  TGI: 5.4 µM
[51]
  TGI: 1.41 µM
[52]
  TGI: 5.75 µM
[53]
  TGI: 2.69 µM
[54]
  TGI: 3.66 µM
[55]
  TGI: 2.35 µM
[56]
  TGI: 5.97 µM
[57]
  TGI: 9.72 µM

## Nc1nonc1C(=Nc1ccc(F)c(Cl)c1)NO
[1]
  GI50: 42.4 µM
  TGI: > 100 µM
[2]
  GI50: 55.9 µM
  TGI: > 100 µM
[3]
  GI50: 25.1 µM
  TGI: > 100 µM
[4]
  GI50: 29.8 µM
  TGI: > 100 µM
[5]
  GI50: 28.8 µM
  TGI: > 100 µM
[6]
  GI50: 95.2 µM
  TGI: > 100 µM
[7]
  GI50: 28 µM
  TGI: > 100 µM
[8]
  GI50: > 94.2 µM
  TGI: > 100 µM
[9]
  GI50: 49.2 µM
  TGI: > 100 µM
[10]
  GI50: 29.8 µM
  TGI: > 100 µM
[11]
  GI50: 58.8 µM
  TGI: > 100 µM
[12]
  GI50: 54.2 µM
  TGI: > 100 µM
[13]
  GI50: 41.4 µM
  TGI: > 100 µM
[14]
  GI50: 51.5 µM
  TGI: > 100 µM
[15]
  GI50: 39.4 µM
  TGI: > 100 µM
[16]
  GI50: 63.3 µM
  TGI: > 100 µM
[17]
  GI50: > 100 µM
  TGI: > 100 µM
[18]
  GI50: > 100 µM
  TGI: > 100 µM
[19]
  GI50: > 91.5 µM
  TGI: > 100 µM
[20]
  GI50: > 63.2 µM
  TGI: > 100 µM
[21]
  GI50: 41.6 µM
  TGI: > 100 µM
[22]
  GI50: 60.5 µM
  TGI: > 100 µM
[23]
  GI50: 12.6 µM
  TGI: 97.5 µM
[24]
  GI50: 65 µM
  TGI: > 100 µM
[25]
  GI50: > 88.4 µM
  TGI: > 100 µM
[26]
  GI50: 45.8 µM
  TGI: > 100 µM
[27]
  GI50: 49.3 µM
  TGI: > 100 µM
[29]
  GI50: > 47.1 µM
  TGI: > 100 µM
[30]
  GI50: > 75.7 µM
  TGI: > 100 µM
[31]
  GI50: 51.9 µM
  TGI: > 100 µM
[32]
  GI50: 33.6 µM
  TGI: > 100 µM
[33]
  GI50: 49.5 µM
  TGI: > 100 µM
[34]
  GI50: 68 µM
  TGI: > 100 µM
[35]
  GI50: 43.1 µM
  TGI: > 100 µM
[36]
  GI50: 20.4 µM
  TGI: > 100 µM
[37]
  GI50: 71.1 µM
  TGI: > 100 µM
[38]
  GI50: 63.7 µM
  TGI: > 100 µM
[39]
  GI50: > 93.2 µM
  TGI: > 100 µM
[40]
  GI50: 46.6 µM
  TGI: > 100 µM
[41]
  GI50: 28.9 µM
  TGI: > 100 µM
[42]
  GI50: 43.4 µM
  TGI: > 100 µM
[43]
  GI50: 32.7 µM
  TGI: > 100 µM
[44]
  GI50: 37.9 µM
  TGI: > 100 µM
[58]
  GI50: 25.3 µM
  TGI: > 100 µM
[45]
  GI50: 42.3 µM
  TGI: > 100 µM
[46]
  GI50: > 66 µM
  TGI: > 100 µM
[47]
  GI50: 14.2 µM
  TGI: 76.5 µM
[48]
  GI50: 29.7 µM
  TGI: > 100 µM
[49]
  GI50: 98.3 µM
  TGI: > 100 µM
[50]
  GI50: 12.6 µM
  TGI: 54.9 µM
[51]
  GI50: 40 µM
  TGI: > 100 µM
[52]
  GI50: > 100 µM
  TGI: > 100 µM
[53]
  GI50: 62.8 µM
  TGI: > 100 µM
[54]
  GI50: 53.2 µM
  TGI: > 100 µM
[55]
  GI50: 79 µM
  TGI: > 100 µM
[56]
  GI50: 47.3 µM
  TGI: > 100 µM
[57]
  GI50: 21.1 µM
  TGI: > 86.9 µM
